Laboratory results reported in ChEMBL document CHEMBL1909046, “DrugMatrix in vitro pharmacology data”.

Assays:
[1] = DRUGMATRIX: Sodium/nucleoside co-transporter radioligand binding (ligand: nitrobenzylthioinosine); format: cell membranes, Cavia porcellus, Dunkin-Hartley, Cerebral cortex, Membrane; conditions: Not Active = under 50% inhibition at 10 µM
[2] = biological target: T1, 5-hydroxytryptamine receptor 2C (Homo sapiens, UniProt P28335); experiment: DRUGMATRIX: Serotonin (5-Hydroxytryptamine) 5-HT2C radioligand binding (ligand: [3H] Mesulergine); format: cell membranes, CHO-K1, Membrane; conditions: Not Active = under 50% inhibition at 10 µM; for Ki: read-out: Ki
T1 sequence (P28335 whole entry): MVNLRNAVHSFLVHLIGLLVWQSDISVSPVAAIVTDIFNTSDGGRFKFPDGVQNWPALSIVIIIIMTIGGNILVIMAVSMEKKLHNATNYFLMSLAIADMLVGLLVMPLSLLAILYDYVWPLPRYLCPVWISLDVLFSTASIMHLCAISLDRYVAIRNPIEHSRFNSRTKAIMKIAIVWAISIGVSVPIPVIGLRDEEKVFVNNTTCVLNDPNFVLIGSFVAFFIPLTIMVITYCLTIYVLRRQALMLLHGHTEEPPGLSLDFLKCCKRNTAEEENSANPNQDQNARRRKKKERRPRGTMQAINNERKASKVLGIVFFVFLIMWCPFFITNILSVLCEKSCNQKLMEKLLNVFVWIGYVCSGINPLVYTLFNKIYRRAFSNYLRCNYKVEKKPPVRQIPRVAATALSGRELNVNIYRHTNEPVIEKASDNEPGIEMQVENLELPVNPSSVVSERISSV

[3] = biological target: Carbonic anhydrase 2 (Homo sapiens, UniProt P00918); experiment: DRUGMATRIX: Carbonic Anhydrase II enzyme inhibition (substrate: 4-Nitrophenyl acetate (4-NPA)); format: tissue-based; conditions: erythrocyte; Not Active = under 50% inhibition at 10 µM
[4] = biological target: T2, C-C chemokine receptor type 4 (Homo sapiens, UniProt P51679); format: cell membranes, Membrane; conditions: chem-1; also: in other assays of this panel Not Active means under 50% inhibition at 10 µM
T2 sequence (P51679 whole entry): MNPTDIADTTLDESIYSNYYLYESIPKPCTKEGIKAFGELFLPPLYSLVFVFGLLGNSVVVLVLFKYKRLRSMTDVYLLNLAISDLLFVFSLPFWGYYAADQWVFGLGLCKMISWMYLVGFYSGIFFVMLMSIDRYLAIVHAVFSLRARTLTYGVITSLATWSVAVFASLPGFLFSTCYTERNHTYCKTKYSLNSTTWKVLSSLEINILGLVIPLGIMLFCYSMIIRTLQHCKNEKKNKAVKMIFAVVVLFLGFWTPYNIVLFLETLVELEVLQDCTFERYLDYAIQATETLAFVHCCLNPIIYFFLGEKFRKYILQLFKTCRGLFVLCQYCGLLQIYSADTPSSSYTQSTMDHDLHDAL

[5] = DRUGMATRIX: Platelet-Derived Growth Factor (PDGF) radioligand binding (ligand: [125I] PDGF); format: cell-based; conditions: nih3t3; Not Active = under 50% inhibition at 10 µM
[6] = biological target: Mitogen-activated protein kinase 14 (Homo sapiens, UniProt Q16539); parameters: species or system Escherichia coli;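 also: inhibition of p38alpha enzyme activity in a biochemical kinase assay, with myelin basic protein serving as substrate; in other assays of this panel Not Active means under 50% inhibition at 10 µM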
Sequence of Mitogen-activated protein kinase 14 (Q16539 whole entry): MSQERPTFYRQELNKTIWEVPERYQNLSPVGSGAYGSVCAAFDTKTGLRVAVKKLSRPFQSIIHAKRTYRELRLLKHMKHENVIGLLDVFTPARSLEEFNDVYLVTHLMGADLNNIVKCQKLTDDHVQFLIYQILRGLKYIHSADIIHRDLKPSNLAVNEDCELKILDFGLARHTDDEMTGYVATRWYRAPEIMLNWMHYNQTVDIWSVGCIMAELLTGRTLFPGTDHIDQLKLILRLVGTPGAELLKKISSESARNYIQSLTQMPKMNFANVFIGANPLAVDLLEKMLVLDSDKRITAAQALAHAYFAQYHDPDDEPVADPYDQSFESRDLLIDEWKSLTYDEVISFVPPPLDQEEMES

[7] = biological target: Tyrosine-protein kinase Lck (Homo sapiens, UniProt P06239); experiment: DRUGMATRIX: Protein Tyrosine Kinase, LCK enzyme inhibition (substrate: Poly(Glu:Tyr)); format: cell-based, Insect cells; conditions: Not Active = under 50% inhibition at 10 µM
Sequence of Tyrosine-protein kinase Lck (P06239 whole entry): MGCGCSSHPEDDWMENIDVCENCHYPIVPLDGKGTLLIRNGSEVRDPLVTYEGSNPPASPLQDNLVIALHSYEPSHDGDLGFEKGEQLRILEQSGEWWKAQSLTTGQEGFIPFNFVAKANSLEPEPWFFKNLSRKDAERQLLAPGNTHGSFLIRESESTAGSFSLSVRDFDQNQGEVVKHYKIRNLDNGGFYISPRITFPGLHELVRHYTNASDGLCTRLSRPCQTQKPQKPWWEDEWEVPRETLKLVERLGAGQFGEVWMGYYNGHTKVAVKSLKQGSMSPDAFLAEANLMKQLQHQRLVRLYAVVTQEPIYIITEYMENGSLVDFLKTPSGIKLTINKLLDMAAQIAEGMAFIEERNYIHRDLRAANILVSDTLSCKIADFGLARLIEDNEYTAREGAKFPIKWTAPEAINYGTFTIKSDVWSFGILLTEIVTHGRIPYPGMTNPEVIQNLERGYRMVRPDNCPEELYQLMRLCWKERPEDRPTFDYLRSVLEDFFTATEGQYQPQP

Row | Compound | IC50 [1] | Ki [1] | IC50 ([2]; read-out: IC50) | Ki [2] | IC50 [3] | IC50 [4] | IC50 [5] | Ki [5] | IC50 ([6]; read-out: IC50) | IC50 ([7]; read-out: IC50) | IC50 ([2]; cho-k1) | IC50 [6] | IC50 ([7]; insect cells)
1 | Oc1c(Cl)cc(Cl)c(Cl)c1Cc1c(O)c(Cl)cc(Cl)c1Cl [HEXACHLOROPHENE] | Not Active | Not Active | 4.6 µM | 2.41 µM | Not Active | Not Active | Not Active | Not Active | 0.0876 µM | 2.43 µM |  |  | 
2 | NNc1nncc2ccccc12 [HYDRALAZINE] | Not Active | Not Active |  |  | Not Active | Not Active | Not Active | Not Active |  |  | Not Active | Not Active | Not Active
3 | CC(=O)[C@@]1(O)CC[C@H]2[C@@H]3CCC4=CC(=O)CC[C@]4(C)[C@H]3CC[C@@]21C [HYDROXYPROGESTERONE] | Not Active | Not Active |  |  | Not Active | Not Active | Not Active | Not Active |  |  | Not Active | Not Active | Not Active
4 | COC1=C(OC)C(=O)C(CCCCCCCCCCO)=C(C)C1=O [IDEBENONE] | Not Active | Not Active |  |  | Not Active | Not Active | Not Active | Not Active |  |  | Not Active | Not Active | Not Active
5 | CC(C)NNC(=O)c1ccncc1 [IPRONIAZID] | Not Active | Not Active |  |  | Not Active | Not Active | Not Active | Not Active |  |  | Not Active | Not Active | Not Active
6 | Cc1c(OCC(F)(F)F)ccnc1C[S+]([O-])c1nc2ccccc2[nH]1 (configuration not stated) [LANSOPRAZOLE] | Not Active | Not Active |  |  | Not Active | Not Active | Not Active | Not Active |  |  | Not Active | Not Active | Not Active
7 | COc1ccc2[nH]cc(CCNC(C)=O)c2c1 [MELATONIN] | Not Active | Not Active |  |  | Not Active | Not Active | Not Active | Not Active |  |  | Not Active | Not Active | Not Active
8 | NC(=O)C[S+]([O-])C(c1ccccc1)c1ccccc1 (configuration not stated) [MODAFINIL] | Not Active | Not Active |  |  | Not Active | Not Active | Not Active | Not Active |  |  | Not Active | Not Active | Not Active
9 | CCN(CC)CCOCCC1=CCC2CC1C2(C)C (configuration not stated) [MYRTECAINE] | Not Active | Not Active |  |  | Not Active | Not Active | Not Active | Not Active |  |  | Not Active | Not Active | Not Active
10 | O=C(O)c1cccnc1Nc1cccc(C(F)(F)F)c1 [NIFLUMIC ACID] | Not Active | Not Active |  |  | Not Active | Not Active | Not Active | Not Active |  |  | Not Active | Not Active | Not Active
11 | O=C(N/N=C/c1ccc([N+](=O)[O-])o1)c1cc([N+](=O)[O-])cc([N+](=O)[O-])c1O [NIFURSOL] | Not Active | Not Active |  |  | Not Active | Not Active | Not Active | Not Active |  |  | Not Active | Not Active | Not Active
12 | COC(=O)Nc1nc2ccc(C(=O)c3cccs3)cc2[nH]1 [NOCODAZOLE] | Not Active | Not Active |  |  | Not Active | Not Active | Not Active | Not Active |  |  | Not Active | Not Active | Not Active
13 | C#CC1(O)CC[C@H]2[C@@H]3CCC4=CC(=O)CC[C@@H]4[C@H]3CC[C@@]21CC (some centres not stated) [NORGESTREL] | Not Active | Not Active |  |  | Not Active | Not Active | Not Active | Not Active |  |  | Not Active | Not Active | Not Active
14 | COC(=O)Nc1nc2ccc([S+]([O-])c3ccccc3)cc2[nH]1 (configuration not stated) [OXFENDAZOLE] | Not Active | Not Active |  |  | Not Active | Not Active | Not Active | Not Active |  |  | Not Active | Not Active | Not Active
15 | CC(=O)O[C@H]1C(=O)[C@@]2(C)[C@H]([C@H](OC(=O)c3ccccc3)[C@]3(O)C[C@H](OC(=O)[C@H](O)[C@@H](NC(=O)c4ccccc4)c4ccccc4)C(C)=C1C3(C)C)[C@]1(OC(C)=O)CO[C@@H]1C[C@@H]2O [PACLITAXEL] | Not Active | Not Active |  |  | Not Active | Not Active | Not Active | Not Active |  |  | Not Active | Not Active | Not Active
16 | C[n+]1ccc(-c2cc[n+](C)cc2)cc1.[Cl-].[Cl-] [PARAQUAT DICHLORIDE] | Not Active | Not Active |  |  | Not Active | Not Active | Not Active | Not Active |  |  | Not Active | Not Active | Not Active
17 | CC(C)NCC(O)COc1cccc2[nH]ccc12 (configuration not stated) [PINDOLOL] | Not Active | Not Active |  |  | Not Active | Not Active | Not Active | Not Active |  |  | Not Active | Not Active | Not Active
18 | CCn1cc(C(=O)O)c(=O)c2cnc(N3CCCC3)nc21 [PIROMIDIC ACID] | Not Active | Not Active |  |  | Not Active | Not Active | Not Active | Not Active |  |  | Not Active | Not Active | Not Active
19 | C[n+]1ccccc1/C=N/O.[Cl-] [PRALIDOXIME CHLORIDE] | Not Active | Not Active |  |  | Not Active | Not Active | Not Active | Not Active |  |  | Not Active | Not Active | Not Active
20 | COc1cc2nc(N3CCN(C(=O)c4ccco4)CC3)nc(N)c2cc1OC [PRAZOSIN] | Not Active | Not Active |  |  | Not Active | Not Active | Not Active | Not Active |  |  | Not Active | Not Active | Not Active
21 | C[C@]12C=CC(=O)C=C1CC[C@@H]1[C@@H]2[C@@H](O)C[C@@]2(C)[C@H]1CC[C@]2(O)C(=O)CO [PREDNISOLONE] | Not Active | Not Active |  |  | Not Active | Not Active | Not Active | Not Active |  |  | Not Active | Not Active | Not Active
22 | CC(=O)[C@H]1[C@H](C#N)C[C@H]2[C@@H]3CC=C4C[C@@H](O)CC[C@]4(C)[C@H]3CC[C@@]21C [PREGNENOLONE CARBONITRILE] | Not Active | Not Active |  |  | Not Active | Not Active | Not Active | Not Active |  |  | Not Active | Not Active | Not Active
23 | CCCN(CCC)S(=O)(=O)c1ccc(C(=O)O)cc1 [PROBENECID] | Not Active | Not Active |  |  | Not Active | Not Active | Not Active | Not Active |  |  | Not Active | Not Active | Not Active
24 | CCCOc1ccc(C(=O)OCCN(CC)CC)cc1N [PROPARACAINE] | Not Active | Not Active |  |  | Not Active | Not Active | Not Active | Not Active |  |  | Not Active | Not Active | Not Active
25 | CC(C)c1cccc(C(C)C)c1O [PROPOFOL] | Not Active | Not Active | 11.6 µM | 6.05 µM | Not Active | Not Active | Not Active | Not Active |  |  |  | Not Active | Not Active
